Results on 35 compounds are retold here after ChEMBL document CHEMBL5512640, “Discovery of novel itaconimide-based derivatives as potent HDAC inhibitors for the efficient treatment of prostate cancer” (Eur J Med Chem, 2024).

pIC50: −log10 of the molar value. Calls of active or inactive are those of the source. No cut-off for these calls is given here.

Data set [1] addresses Histone deacetylase 1 (Homo sapiens, UniProt Q13547). The data set can be described thus: Inhibition of human HDAC1 incubated for 10 mins followed by fluorogenic substrate addition by fluorescence based analysis.
In data set [2] the test system is DU-145. The experiment in a line: Antiproliferative activity against human DU-145 cells incubated for 96 hrs by MTT assay. In kind it is functional, cell-based. Conditions: DU-145, 96 h. A general note: Formazan colour is commonly taken as a measure of viable cells.
Data set [3] concerns PC-3. The data set can be described thus: Antiproliferative activity against human PC-3 cells incubated for 96 hrs by MTT assay. Type of data set: functional, cell-based. Conditions: PC-3, 96 h.
Data set [4] relates to DU-145. The data set can be described thus: Induction of apoptosis in human DU-145 cells assessed as apoptotic rate at 1.6 uM measured after 72 hrs by annexin V-FITC and PI staining based flow cytometry analysis relative to control. In kind it is functional.
Data set [5] has as its system DU-145. The experiment in a line: Downregulation of HDAC6 expression in human DU-145 cells at 0.8 uM incubated for 24 hrs by Western blot analysis. In kind it is functional, cell-based. Background: Immunoblotting shows a protein as a band on a membrane.
A short description of data set [6]: Toxicity in Balb/c mouse assessed as effect on body weight at 8 mg/kg, ip measured upto 40 days. Type of data set: organism-based. Conditions: in vivo, 960 h, time < 40 day.
Data set [7] deals with DU-145. The experiment in a line: Antitumor activity against human DU-145 cells xenografted in Balb/c nude mouse model assessed as tumor growth inhibition at 8 mg/kg, ip administered once daily for 40 days relative to control. Type of data set: functional. The note with it: DU-145, 960 h, time 40 day, read-out: TGI. A general note: Xenograft models place foreign cells or tissue in a host animal.

A short description of data set [8]: Toxicity in Balb/c mouse assessed as mortality at 8 mg/kg, ip measured upto 40 days. Type of data set: organism-based. Conditions: in vivo, 960 h, time < 40 day.
For data set [9], the target named is Histone deacetylase 11 (Homo sapiens, UniProt Q96DB2). The experiment in a line: Inhibition of human HDAC11 incubated for 10 mins followed by fluorogenic substrate addition by fluorescence based analysis.
Sequence of Histone deacetylase 11 (Q96DB2 whole entry): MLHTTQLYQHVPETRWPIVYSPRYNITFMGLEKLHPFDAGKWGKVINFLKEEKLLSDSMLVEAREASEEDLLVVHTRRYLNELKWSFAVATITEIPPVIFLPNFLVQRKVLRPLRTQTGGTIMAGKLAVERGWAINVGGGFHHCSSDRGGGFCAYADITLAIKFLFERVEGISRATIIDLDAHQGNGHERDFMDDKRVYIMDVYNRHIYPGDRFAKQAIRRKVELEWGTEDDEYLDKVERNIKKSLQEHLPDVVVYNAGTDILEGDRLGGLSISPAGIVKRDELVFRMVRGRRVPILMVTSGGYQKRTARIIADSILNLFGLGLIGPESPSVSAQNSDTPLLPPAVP
For data set [10], the system named is MCF7. The experiment in a line: Antiproliferative activity against human MCF7 cells incubated for 96 hrs by MTT assay. The note with it: MCF7, 96 h. Type of data set: functional, cell-based.
Data set [11] has as its system NCI-H446. The data set can be described thus: Antiproliferative activity against human NCI-H446 cells incubated for 96 hrs by MTT assay. Type of data set: functional, cell-based. The note with it: NCI-H446, 96 h.
Data set [12] relates to MDA-MB-231. The data set can be described thus: Antiproliferative activity against human MDA-MB-231 cells incubated for 96 hrs by MTT assay. Type of data set: functional, cell-based. The note with it: MDA-MB-231, 96 h.
Data set [13] has as its system HCT-116. The data set can be described thus: Antiproliferative activity against human HCT-116 cells incubated for 96 hrs by MTT assay. Type of data set: functional, cell-based. The note with it: HCT-116, 96 h.
In data set [14] the test system is LNCaP. The data set can be described thus: Antiproliferative activity against human LNCaP cells incubated for 96 hrs by MTT assay. Type of data set: functional, cell-based.
For data set [15], the system named is NCI-H1650. The experiment in a line: Antiproliferative activity against human NCI-H1650 cells incubated for 96 hrs by MTT assay. Type of data set: functional, cell-based. The note with it: NCI-H1650, 96 h.
Data set [16] deals with Polyamine deacetylase HDAC10 (Homo sapiens, UniProt Q969S8). The experiment in a line: Inhibition of human HDAC10 incubated for 10 mins followed by fluorogenic substrate addition by fluorescence based analysis.
Sequence of Polyamine deacetylase HDAC10 (Q969S8 whole entry): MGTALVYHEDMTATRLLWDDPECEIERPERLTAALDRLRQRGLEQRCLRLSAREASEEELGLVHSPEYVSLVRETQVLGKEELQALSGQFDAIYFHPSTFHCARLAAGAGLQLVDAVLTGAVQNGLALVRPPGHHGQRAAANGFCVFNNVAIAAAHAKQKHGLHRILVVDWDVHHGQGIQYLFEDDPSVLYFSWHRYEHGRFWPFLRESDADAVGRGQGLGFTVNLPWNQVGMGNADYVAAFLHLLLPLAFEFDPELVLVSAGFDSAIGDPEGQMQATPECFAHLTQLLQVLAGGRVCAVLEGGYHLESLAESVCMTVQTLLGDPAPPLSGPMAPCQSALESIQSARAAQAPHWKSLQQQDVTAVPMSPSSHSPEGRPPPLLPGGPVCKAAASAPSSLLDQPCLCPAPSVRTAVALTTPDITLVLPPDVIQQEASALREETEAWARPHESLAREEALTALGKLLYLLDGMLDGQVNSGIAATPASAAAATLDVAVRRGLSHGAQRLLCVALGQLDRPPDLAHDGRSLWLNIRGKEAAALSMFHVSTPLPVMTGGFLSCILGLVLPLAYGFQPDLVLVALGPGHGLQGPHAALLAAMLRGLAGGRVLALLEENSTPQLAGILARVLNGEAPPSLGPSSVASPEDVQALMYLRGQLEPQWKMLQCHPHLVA
Data set [17] has as its system A549. The data set can be described thus: Antiproliferative activity against human A549 cells incubated for 96 hrs by MTT assay. In kind it is functional, cell-based. Conditions: A549, 96 h.
Data set [18] has as its system HT-29. The data set can be described thus: Antiproliferative activity against human HT-29 cells incubated for 96 hrs by MTT assay. Type of data set: functional, cell-based. The note with it: HT-29, 96 h.

Sequence of Histone deacetylase 1 (Q13547 whole entry): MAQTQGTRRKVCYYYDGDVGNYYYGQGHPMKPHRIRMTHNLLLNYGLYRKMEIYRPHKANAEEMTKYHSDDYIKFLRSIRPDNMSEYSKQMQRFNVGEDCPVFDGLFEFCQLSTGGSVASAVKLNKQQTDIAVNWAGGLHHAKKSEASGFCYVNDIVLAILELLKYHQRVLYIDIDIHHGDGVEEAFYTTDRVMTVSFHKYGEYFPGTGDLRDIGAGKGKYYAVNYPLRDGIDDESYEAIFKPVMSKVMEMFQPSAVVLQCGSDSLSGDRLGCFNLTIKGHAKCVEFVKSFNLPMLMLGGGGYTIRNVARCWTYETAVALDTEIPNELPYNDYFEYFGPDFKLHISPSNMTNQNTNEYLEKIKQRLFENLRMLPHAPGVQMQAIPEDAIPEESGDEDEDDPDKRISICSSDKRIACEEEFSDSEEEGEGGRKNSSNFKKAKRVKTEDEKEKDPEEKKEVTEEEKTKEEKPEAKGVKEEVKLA

Turning to `COc1cc(/C=C2\CC(=O)N(CCCCCCC(=O)NO)C2=O)cc(OC)c1OC`, the pIC50 (as a rule, the negative decadic logarithm of the IC50, by convention in mol/L) is 7.56 in data set [1], 5.99 in data set [2] and 5.77 in data set [3].
Take `O=C(CCCCCCC(=O)Nc1ccccc1)NO` [VORINOSTAT]: the Activity in data set [4] was 73.76%. Besides, the outcome in data set [5] was Active.
On to `O=C(CCCCCCN1C(=O)C/C(=C\c2ccc(Cl)c(Cl)c2)C1=O)NO`, for which the results for the pIC50 in data set [1], in [2] and in data set [3] were 7.55, 6.36 and 5.77, respectively.
For the compound `O=C(CCCCCCN1C(=O)C/C(=C\c2cccc(Br)c2)C1=O)NO`, the pIC50 is 7.72 in data set [1], 6.19 in data set [2] and 5.97 in [3].
Consider `C=C(CC(N)=O)C(N)=O`, for which the pIC50 is 4.83 in [2] and 5.00 in data set [3].
For the compound `COc1cccc(/C=C2\CC(=O)N(CCCCCCC(=O)NO)C2=O)c1`, the values for the pIC50 in [1], in [2] and in data set [3] were 7.73, 6.40 and 6.04, respectively.
The matching figures for `Nc1cc(F)ccc1NC(=O)CCCCCN1C(=O)C/C(=C\c2ccccc2)C1=O`: 6.98, 4.96 and less than 4.70.
In the same order, the values of `O=C(CCCCCCN1C(=O)C/C(=C\c2cccc(Cl)c2)C1=O)NO` are 7.73, 6.42 and 5.77.
In the same order, the values of `N#Cc1ccccc1/C=C1\CC(=O)N(CCCCCCC(=O)NO)C1=O` are 7.40, 6.13 and 6.06.
On to `O=C(CCCN1C(=O)C/C(=C\c2ccccc2)C1=O)NO`, for which the pIC50 is 6.74 in data set [1], less than 4.70 in [2] and less than 4.70 in data set [3].
As for `O=C(CCCCCCN1C(=O)C/C(=C\c2cccs2)C1=O)NO`, the results for the pIC50 in data set [1], in data set [2] and in [3] were 7.60, 6.27 and 6.04, respectively.
The matching figures for `O=C(CCCCCCN1C(=O)C/C(=C\c2ccc(Cl)cc2)C1=O)NO`: 7.63, 6.24 and 6.05.
In the same order, the values of `O=C(CCCCCCN1C(=O)C/C(=C\c2ccc(C(F)(F)F)cc2)C1=O)NO` are 7.47, 5.91 and 5.74.
The matching figures for `O=C(CCCCCCN1C(=O)C/C(=C\c2ccccc2Cl)C1=O)NO`: 7.71, 6.32 and 5.84.
As to `Nc1cc(F)ccc1NC(=O)CCCCN1C(=O)C/C(=C\c2ccccc2)C1=O`, the results for the pIC50 in data set [1], in [2] and in data set [3] were 6.76, less than 4.70 and less than 4.70, respectively.
`O=C(CCCCN1C(=O)C/C(=C\c2ccccc2)C1=O)NO`: the values for the pIC50 in data set [1], in data set [2] and in data set [3] were 6.87, less than 4.70 and less than 4.70, respectively.
As for `O=C(CCCCCCCN1C(=O)C/C(=C\c2ccccc2)C1=O)NO`, the values for the pIC50 in data set [1], in [2] and in data set [3] were 7.60, 5.81 and 5.30, respectively.
The matching figures for `O=C(NO)c1ccc(CN2C(=O)C/C(=C\c3ccccc3)C2=O)cc1`: 7.48, 5.60 and 5.11.
In the same order, the values of `CC(C)c1ccc(/C=C2\CC(=O)N(CCCCCCC(=O)NO)C2=O)cc1` are 7.54, 5.87 and 5.74.
As to `CC(=O)O[C@@]12CO[C@@H]1C[C@H](O)[C@@]1(C)C(=O)[C@H](O)C3=C(C)[C@@H](OC(=O)[C@H](O)[C@@H](NC(=O)OC(C)(C)C)c4ccccc4)C[C@@](O)([C@@H](OC(=O)c4ccccc4)[C@H]21)C3(C)C` [DOCETAXEL ANHYDROUS], the Activity result in data set [6] and in data set [8] was “Toxic” in each case. Further, in data set [7], the inhibition in vivo at 8 mg/kg came to 13.3%.
For the compound `O=C(CCCCCCN1C(=O)C/C(=C\c2ccccc2O)C1=O)NO`, the pIC50 is 7.71 in data set [1], 5.76 in data set [2] and 5.71 in data set [3].
For `COc1ccc(Br)cc1/C=C1\CC(=O)N(CCCCCCC(=O)NO)C1=O`, the results for the pIC50 in data set [1], in data set [2] and in data set [3] were 7.11, 6.34 and 5.95, respectively.
As to `Nc1cc(F)ccc1NC(=O)c1ccc(CNC(=O)/C=C/c2cccnc2)cc1` [TUCIDINOSTAT], the pIC50 is less than 5.30 in data set [9]; less than 4.70 in data set [10]; 6.62 in [11]; 5.83 in [2]; 5.73 in data set [12]; 6.04 in [13]. The pIC50 in data set [3] is 5.24; in [14], 5.54; in [15] it was less than 4.70; in data set [16] it was 6.34; in [17], 5.01; in [18], 5.34.
For `O=C(CCCCCCN1C(=O)C/C(=C\c2cccc(I)c2)C1=O)NO`, the values for the pIC50 in [1], in data set [2] and in data set [3] were 7.54, 6.04 and 5.83, respectively.
For the compound `COc1ccc(/C=C2\CC(=O)N(CCCCCCC(=O)NO)C2=O)cc1OC`, the figures for the pIC50 in data set [1], in data set [2] and in data set [3] were 7.61, 6.35 and 6.06, respectively.
In the same order, the values of `Nc1cc(F)ccc1NC(=O)CCCN1C(=O)C/C(=C\c2ccccc2)C1=O` are 6.64, less than 4.70 and less than 4.70.
With `Cc1ccccc1/C=C1\CC(=O)N(CCCCCCC(=O)NO)C1=O`, the figures for the pIC50 in data set [1], in data set [2] and in [3] were 7.66, 6.15 and 6.03, respectively.
In the same order, the values of `CCOc1ccccc1/C=C1\CC(=O)N(CCCCCCC(=O)NO)C1=O` are 7.78, 6.47 and 6.05.
In the same order, the values of `O=C(CCCCCCN1C(=O)C/C(=C\c2cccc(F)c2)C1=O)NO` are 7.12, 6.18 and 6.05.
The matching figures for `CN(C)c1ccc(/C=C2\CC(=O)N(CCCCCCC(=O)NO)C2=O)cc1`: 7.57, 6.04 and 5.76.
Turning to `O=C(CCCCCN1C(=O)C/C(=C\c2ccccc2)C1=O)NO`, the pIC50 in data set [1] was 7.49; in data set [2] it was 5.83; in [3] it was 5.37.
The matching figures for `O=C(CCCCCCN1C(=O)C/C(=C\c2ccccc2)C1=O)NO`: 7.89, 6.30 and 6.09.
The matching figures for `Nc1cc(F)ccc1NC(=O)CCCCCCN1C(=O)C/C(=C\c2ccccc2)C1=O`: 6.84, less than 4.70 and less than 4.70.
The matching figures for `COc1ccc(/C=C2\CC(=O)N(CCCCCCC(=O)NO)C2=O)cc1`: 7.89, 6.30 and 6.05.
For the compound `Cc1ccc(/C=C2\CC(=O)N(CCCCCCC(=O)NO)C2=O)cc1`, the pIC50 in data set [1] was 7.59; in data set [2] it was 6.51; in data set [3] it was 5.66.
